# Measured values taken from patent publication US20050180972A1, “Anti-CD20 antibody-drug conjugates for the treatment of cancer and immune disorders” (priority 2002, published 2005).
# Read-outs that look alike come from different tables or passages of the source. Square brackets hold non-standard residues; d marks the D form. Peptide text beside a SMILES is read from it. * marks the point of attachment. Dolaproine = CO[C@@H]([C@@H]1CCCN1)[C@@H](C)C(=O)O; Dil = CC[C@H](C)[C@H](NC)[C@@H](CC(=O)O)OC; X1 = C[C@@H](N*)[C@@H](O)c1ccccc1; NMeV = CN[C@H](C(=O)O)C(C)C
# Key:
# [1] = system: Daudi cells; assay: Alamar Blue cytotoxicity assay, Daudi cells; type: cell-based, human
# Description: (§1) Cytotoxicity assays. Cytotoxicity was measured by Alamar Blue (Biosource International) dye reduction assay according to manufacturers directions (Nakayama et al. Journal Of Immunological Methods 1997; 204:205-208). Briefly, a 40% solution (w/v) of Alamar Blue was freshly prepared in complete media just prior to adding to cultures. The Alamar Blue solution was added at cell densities of 10^5 cells/ml for the Ramos, Raji, and Karpas cell lines, and at a cell density of 4×10^5 cells/ml for the Daudi cell line. After 92 h following drug exposure. Alamar Blue solution was added to cells to constitute 10% culture volume. The cells were incubated for 4 h and dye reduction measured on a Fusion HT fluorescent plate reader (Packard Instruments, Meriden, Conn.).
# (§2) Cell sensitivity to unconjugated drugs. The cells were initially evaluated for relative sensitivity to doxorubicin and MMAE. Cells were exposed to drugs for 2 h, washed, replated in fresh media and incubated for an additional 92 h. Four h. prior to harvest, cells were incubated with Alamar Blue, a reducible dye that provides readout of cell viability (Nakayarna et al., 1997).
# (§3) Sensitivity of cells to ADCs. […] As described above, 4 h prior to harvest, cells were incubated with Alamar Blue and cell viability assessed.
# [2] = system: Ramos cells; assay: Alamar Blue cytotoxicity assay, Ramos cells; type: cell-based, human
# Description: as §1, §2, §3
# [3] = system: Raji cells; assay: Alamar Blue cytotoxicity assay, Raji cells; type: cell-based, human
# Description: as §1, §2, §3
# [4] = system: Karpas 299 cells; assay: Alamar Blue cytotoxicity assay, CD20-negative Karpas 299 cells; type: cell-based, human
# Description: as §1, §2, §3
# [5] = system: Daudi, Ramos, Raji and Karpas 299 cells; assay: Relative potency of unconjugated drugs versus doxorubicin across cell lines; type: cell-based, human
# Description: as §1, §2
# [6] = system: CD20-positive cells; assay: Cytotoxicity of ADCs, summary statement; type: cell-based, human; details: following brief exposure
# Description: as §1, §3
# [7] = system: Ramos NHL cells; assay: Subcutaneous Ramos NHL xenograft model; type: in vivo, SCID mice; details: intraperitoneal, every 4 days for 3 injections, 3 mg/kg
# Description: For the localized non Hodgkin's lymphoma model, 2×10^6 Ramos NHL cells were implanted into the right flank of SCID mice. […] Treatment consisted of intraperitoneal injections of mAb or ADC every 4 days for 3 injections. Tumor size was determined using the formula (L×W^2)/2.
# SCID mice were implanted with 5×10^6 Ramos cells into the flank and the tumor size in each group of 5 animals was allowed to progress to an average size of 100 mm^3 before therapy with mAb or ADCs was initiated. Treatment consisted of intraperitoneal injections of mAb or ADC every 4 days for 3 injections using 1 and 3 mg/kg/injection.
# [8] = system: Ramos cells; assay: Confocal microscopy for mAb/ADC trafficking; details: 5 ug/ml, 37 C, 1, 4 and 24 h
# Description: Microscopy for mAb/ ADC trafficking. […] At the designated times cells were harvested by centrifugation, fixed and permeabilized by paraformaldehyde/saponin (Cytofix/Cytoperm™ Buffer, BD PharMingen, San Diego, Calif.). After washing with the Perm/Wash™ buffer (BD PharMingen) and blocking with goat IgG, cells were stained with a goat anti-human IgG Fc_specific FITC conjugate (Jackson ImmunoResearch Laboratories, Inc., West Grove, Pa.). The localization of fluorescence signals was then visualized using a Deltavision confocal fluorescence microscope equipped with digital analysis software.
# Internalization of the mAb-drug conjugate.
# [9] = system: Ramos cells; assay: Induction of apoptosis, Annexin V-FITC / propidium iodide staining; details: 5 μg/ml, after 24 hr of incubation
# Description: Selective induction of Apoptosis. […] At the designated times cells were removed from cultures and stained with Annexin V-FITC and propidium iodide (PI) as described in Materials and Methods. The range of apoptotic cells (Annexin V^+/PI^−) and of dead cells (Annexin V^+/PI^+) was determined by flow cytometric analysis of each population.
# Induction of Apoptosis. […] At designated time points cells were removed from cultures and the degrees of apoptosis and cell death were determined by Annexin V binding to the cell surface and loss of propidium iodide (PI) inclusion respectively (FIG. 5).
# [10] = ADC, 2 h binding, washed, additional 92 h, Daudi
# [11] = ADC, 2 h binding, washed, additional 92 h, Raji
# [12] = ADC, 2 h binding, washed, additional 92 h, Karpas
compound,measurement,setting,value
"CC[C@H](C)[C@@H]([C@@H](CC(=O)N1CCC[C@H]1[C@H](OC)[C@@H](C)C(=O)N[C@H](C)[C@@H](O)c1ccccc1)OC)N(C)C(=O)[C@@H](NC(=O)[C@@H](NC)C(C)C)C(C)C [MMAE, monomethyl Auristatin E] (H-[NMeV]V[Dil][Dolaproine]-X1)",Activity Ratio MMAE/Doxorubicin,[1]; Daudi (CD20+),215.4
same,IC50,"[1]; Homo sapiens, Daudi",0.65 nM
same,IC50,"[2]; Homo sapiens, Ramos",1 nM
same,Activity Ratio MMAE/Doxorubicin,[2]; Ramos (CD20+),225.0
same,IC50,"[3]; Homo sapiens, Raji",3.5 nM
same,Activity Ratio MMAE/Doxorubicin,[3]; Raji (CD20+),57.1
same,IC50,"[4]; Homo sapiens, KARPAS-299",3 nM
same,Activity Ratio MMAE/Doxorubicin,[4]; Karpas (CD20-),216.7
CC[C@H](C)[C@@H]([C@@H](CC(=O)N1CCC[C@H]1[C@H](OC)[C@@H](C)C(=O)N[C@H](C)[C@@H](O)c1ccccc1)OC)N(C)C(=O)[C@@H](NC(=O)[C@H](C(C)C)N(C)C)C(C)C [Auristatin E],times more potent than doxorubicin,[5],> 50 times
Rituximab-valine-citrulline-monomethyl Auristatin E [Rituxan-vcMMAE],IC50,[1]; [10],2 µg/mL
same,IC50,[2]; ADC on Ramos cells (FIG. 4B),0.045 µg/mL
same,IC50,[3]; ADC on Raji cells (FIG. 4A),1.4 µg/mL
same,IC50,[3]; [11],1.5 µg/mL
same,IC50,[4]; [12],>50 µg/mL
same,IC50,[6],0.05 µg/mL
same,delay in tumor growth,[7],significant delay in tumor growth
same,cellular localization (equatorial section),[8],localized to the cell interior within 4 h
same,percentage of apoptotic cells,[9],19%
same,percentage of dead cells,[9],60%
"COc1cccc2c1C(=O)c1c(O)c3c(c(O)c1C2=O)C[C@@](O)(C(=O)CO)C[C@@H]3O[C@H]1C[C@H](N)[C@H](O)[C@H](C)O1 [Doxorubicin, doxorubicin, reference compound]",IC50,"[1]; Homo sapiens, unconjugated drug, 2 h exposure, washed, additional 92 h, Daudi (CD20+), read-out: IC50",140 nM
same,IC50,"[2]; Homo sapiens, unconjugated drug, 2 h exposure, washed, additional 92 h, Ramos (CD20+), read-out: IC50",225 nM
same,IC50,"[3]; Homo sapiens, unconjugated drug, 2 h exposure, washed, additional 92 h, Raji (CD20+), read-out: IC50",200 nM
same,IC50,"[4]; Homo sapiens, KARPAS-299, unconjugated drug, 2 h exposure, washed, additional 92 h, Karpas (CD20-), read-out: IC50",650 nM
Rituxan-vcDox [reference compound],IC50,[1]; [10],>50 µg/mL
same,IC50,"[2]; ADC, 2 h binding, washed, additional 92 h, Ramos",>50 µg/mL
same,IC50,[3]; [11],>50 µg/mL
same,toxicity at the highest levels tested,"[3]; Raji cells, up to 50 ug/ml",did not affect significant toxicity
same,IC50,[4]; [12],>50 µg/mL
same,cellular localization (equatorial section),[8],remained primarily on the surface
